Data taken from patent publication US20020052296A1, “Herbicidal synergistic combination of a dihydrobenzothiophene compound and a photosystem II inhibitor” (Intellectual Property Department, BASF Aktiengesellschaft, priority 2000, published 2002).

Assays:
Conditions in all cases: 18 days after treatment
PANDI (Fall panicum) = assay: Greenhouse postemergence herbicidal evaluation, % weed control; type: in vivo, Panicum dichotomiflorum
Procedure: (§1) In the following examples, synergism for two-way combinations is determined by the Colby1 method, i.e. the expected (or predicted) response of the combination is calculated by taking the product of the observed response for each individual component of the combination when applied alone divided by 100 and subtracting this value from the sum of the observed response for each component when applied alone. Synergism of the combination is then determined by comparing the observed response of the combination to the expected (or predicted) response as calculated from the observed responses of each individual component alone. If the observed response of the combination is greater than the expected (or predicted) response then the combination is said to be synergistic and falls within the definition of synergistic effect as previously defined.
(§2) In this evaluation, seedlings of the plant species listed below are grown in Metromix® soil in jiffy flats for about two weeks, to the 2-3 leaf growth stage. The test compounds are dispersed in water containing 1.0% Sunit II, a methylated seed oil of Agsco, Inc., and applied to the plants through a spray nozzle operating at 40 psi for a predetermined time so as to obtain a range of application rates of about 3.0 g/ha to 250 g/ha. Each treatment is replicated 3 times. After spraying, the plants are placed on greenhouse benches and are cared for in accordance with conventional greenhouse procedures. Eighteen days after treatment, the seedling plants are examined and the % weed control as compared to the untreated check is recorded.
(§3) For replicated treatments, the data are averaged. The Colby method of analysis is used to determine the resultant biological effect of the combination treatment as compared to the biological effect of each component when applied alone. In Tables I and II, obs designates observed and exp designates expected.

DIGSA (Crabgrass, large) = assay: as above; type: in vivo, Digitaria sanguinalis
Procedure: as §1, §2, §3

ERBVI (Cupgrass, woolly) = assay: as above; type: in vivo, Eriochloa villosa
Procedure: as §1, §2, §3

[1] = system: BRAPP (Signalgrass, broadleaf); assay: as above; type: in vivo, Brachiaria platyphylla
Procedure: as §1, §2, §3

ECHCG (Barnyardgrass) = assay: as above; type: in vivo, Echinochloa crus-galli
Procedure: as §1, §2, §3

SORHA (Johnsongrass) = assay: as above; type: in vivo, Sorghum halepense
Procedure: as §1, §2, §3

SORBI (Shattercane) = assay: as above; type: in vivo, Sorghum bicolor
Procedure: as §1, §2, §3

AGRRE (Quackgrass) = assay: as above; type: in vivo, Elytrigia repens
Procedure: as §1, §2, §3

[2] = system: PANMI (Millet, wild proso); assay: as above; type: in vivo, Panicum miliaceum
Procedure: as §1, §2, §3

SETVI (Foxtail, green) = assay: as above; type: in vivo, Setaria viridis
Procedure: as §1, §2, §3

SETFA (Foxtail, giant) = assay: as above; type: in vivo, Setaria faberi
Procedure: as §1, §2, §3

CASOB (Sicklepod) = assay: as above; type: in vivo, Senna obtusifolia
Procedure: as §1, §2, §3

ZEAMX (Corn) = assay: Greenhouse postemergence herbicidal evaluation, crop response; type: in vivo, Zea mays
Procedure: as §1, §2, §3

Compound: Atrazine [reference compound]
- % WEED CONTROL PANDI Obs (PANDI (Fall panicum); 250 g/ha alone): 5%
- % WEED CONTROL DIGSA Obs (DIGSA (Crabgrass, large); 250 g/ha alone): 15%
- % WEED CONTROL ERBVI Obs (ERBVI (Cupgrass, woolly); 250 g/ha alone): 10%
- % WEED CONTROL BRAPP Obs ([1]; 250 g/ha alone): 20%
- % WEED CONTROL ECHCG Obs (ECHCG (Barnyardgrass); 250 g/ha alone): 85%
- % WEED CONTROL SORHA Obs (SORHA (Johnsongrass); 250 g/ha alone): 0%
- % WEED CONTROL SORBI Obs (SORBI (Shattercane); 250 g/ha alone): 0%
- % WEED CONTROL AGRRE Obs (AGRRE (Quackgrass); 250 g/ha alone): 45%
- % WEED CONTROL PANMI Obs ([2]; 250 g/ha alone): 60%
- % WEED CONTROL SETVI Obs (SETVI (Foxtail, green); 250 g/ha alone): 90%
- % WEED CONTROL SETFA Obs (SETFA (Foxtail, giant); 250 g/ha alone): 85%
- % WEED CONTROL CASOB Obs (CASOB (Sicklepod); 250 g/ha alone): 40%
- % crop injury, corn (observed) (ZEAMX (Corn); 250 g/ha alone): 0%

Compound: CCCS(=O)(=O)Oc1c(C(=O)c2ccc3c(c2C)C(C)(C)CS3(=O)=O)cnn1C [DHBT IA, 1-propanesulfonic acid ester of 2,3-dihydro-3,3,4-trimethylbenzo [b]thien-5-yl 5-hydroxy-1-methylpyrazol-4-yl ketone S,S-dioxide]
- % WEED CONTROL PANDI Obs (PANDI (Fall panicum); 3.00 g/ha alone): 40%
- % WEED CONTROL PANDI Obs (PANDI (Fall panicum); 6.00 g/ha alone): 55%
- % WEED CONTROL PANDI Obs (PANDI (Fall panicum); 12.0 g/ha alone): 75%
- % WEED CONTROL DIGSA Obs (DIGSA (Crabgrass, large); 3.00 g/ha alone): 50%
- % WEED CONTROL DIGSA Obs (DIGSA (Crabgrass, large); 6.00 g/ha alone): 70%
- % WEED CONTROL DIGSA Obs (DIGSA (Crabgrass, large); 12.0 g/ha alone): 85%
- % WEED CONTROL ERBVI Obs (ERBVI (Cupgrass, woolly); 3.00 g/ha alone): 0%
- % WEED CONTROL ERBVI Obs (ERBVI (Cupgrass, woolly); 6.00 g/ha alone): 15%
- % WEED CONTROL ERBVI Obs (ERBVI (Cupgrass, woolly); 12.0 g/ha alone): 40%
- % WEED CONTROL BRAPP Obs ([1]; 3.00 g/ha alone): 25%
- % WEED CONTROL BRAPP Obs ([1]; 6.00 g/ha alone): 55%
- % WEED CONTROL BRAPP Obs ([1]; 12.0 g/ha alone): 100%
- % WEED CONTROL ECHCG Obs (ECHCG (Barnyardgrass); 3.00 g/ha alone): 45%
- % WEED CONTROL ECHCG Obs (ECHCG (Barnyardgrass); 6.00 g/ha alone): 60%
- % WEED CONTROL ECHCG Obs (ECHCG (Barnyardgrass); 12.0 g/ha alone): 80%
- % WEED CONTROL SORHA Obs (SORHA (Johnsongrass); 3.00 g/ha alone): 35%
- % WEED CONTROL SORHA Obs (SORHA (Johnsongrass); 6.00 g/ha alone): 40%
- % WEED CONTROL SORHA Obs (SORHA (Johnsongrass); 12.0 g/ha alone): 65%
- % WEED CONTROL SORBI Obs (SORBI (Shattercane); 3.00 g/ha alone): 30%
- % WEED CONTROL SORBI Obs (SORBI (Shattercane); 6.00 g/ha alone): 35%
- % WEED CONTROL SORBI Obs (SORBI (Shattercane); 12.0 g/ha alone): 60%
- % WEED CONTROL AGRRE Obs (AGRRE (Quackgrass); 3.00 g/ha alone): 20%
- % WEED CONTROL AGRRE Obs (AGRRE (Quackgrass); 6.00 g/ha alone): 30%
- % WEED CONTROL AGRRE Obs (AGRRE (Quackgrass); 12.0 g/ha alone): 35%
- % WEED CONTROL PANMI Obs ([2]; 3.00 g/ha alone): 40%
- % WEED CONTROL PANMI Obs ([2]; 6.00 g/ha alone): 70%
- % WEED CONTROL PANMI Obs ([2]; 12.0 g/ha alone): 95%
- % WEED CONTROL SETVI Obs (SETVI (Foxtail, green); 3.00 g/ha alone): 35%
- % WEED CONTROL SETVI Obs (SETVI (Foxtail, green); 6.00 g/ha alone): 100%
- % WEED CONTROL SETVI Obs (SETVI (Foxtail, green); 12.0 g/ha alone): 80%
- % WEED CONTROL SETFA Obs (SETFA (Foxtail, giant); 3.00 g/ha alone): 35%
- % WEED CONTROL SETFA Obs (SETFA (Foxtail, giant); 6.00 g/ha alone): 55%
- % WEED CONTROL SETFA Obs (SETFA (Foxtail, giant); 12.0 g/ha alone): 90%
- % WEED CONTROL CASOB Obs (CASOB (Sicklepod); 3.00 g/ha alone): 15%
- % WEED CONTROL CASOB Obs (CASOB (Sicklepod); 6.00 g/ha alone): 25%
- % WEED CONTROL CASOB Obs (CASOB (Sicklepod); 12.0 g/ha alone): 25%
- % crop injury, corn (observed) (ZEAMX (Corn); 3.00 g/ha alone): 0%
- % crop injury, corn (observed) (ZEAMX (Corn); 6.00 g/ha alone): 0%
- % crop injury, corn (observed) (ZEAMX (Corn); 12.0 g/ha alone): 0%
